# Measurements reported in PubChem BioAssay (NCI).
#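 The compound was tested at five concentrations on cells cultured in 96-well plates, with a 48-hour exposure period. GI50 = concentration required for 50% inhibition of growth. TGI: concentration producing complete growth inhibition.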
# Key:
# Test in all cases: NCI-60 cell line screen, 48 h
# 786-0 renal = system: 786-0 renal
# A498 renal = system: A498 renal
# A549 NSCLC = system: A549 NSCLC
# ACHN renal = system: ACHN renal
# CCRF-CEM leukemia = system: CCRF-CEM leukemia
# COLO 205 colon = system: COLO 205 colon
# DLD-1 colon = system: DLD-1 colon
# DMS 114 small cell lung = system: DMS 114 small cell lung
# DMS 273 small cell lung = system: DMS 273 small cell lung
# EKVX NSCLC = system: EKVX NSCLC
# HCC-2998 colon = system: HCC-2998 colon
# HCT-116 colon = system: HCT-116 colon
# HL-60(TB) leukemia = system: HL-60(TB) leukemia
# HOP-18 NSCLC = system: HOP-18 NSCLC
# HOP-92 NSCLC = system: HOP-92 NSCLC
# HT29 colon = system: HT29 colon
# IGROV1 ovarian = system: IGROV1 ovarian
# K-562 leukemia = system: K-562 leukemia
# KM12 colon = system: KM12 colon
# LXFL 529 NSCLC = system: LXFL 529 NSCLC
# M19-MEL melanoma = system: M19-MEL melanoma
# MALME-3M melanoma = system: MALME-3M melanoma
# MOLT-4 leukemia = system: MOLT-4 leukemia
# NCI-H226 lung = system: NCI-H226 lung
# NCI-H23 lung = system: NCI-H23 lung
# OVCAR-5 ovarian = system: OVCAR-5 ovarian
# OVCAR-8 ovarian = system: OVCAR-8 ovarian
# RPMI-8226 leukemia = system: RPMI-8226 leukemia
# RXF 393 renal = system: RXF 393 renal
# RXF-631 renal = system: RXF-631 renal
# SF-268 CNS = system: SF-268 CNS
# SF-295 CNS = system: SF-295 CNS
# SF-539 CNS = system: SF-539 CNS
# SK-MEL-2 melanoma = system: SK-MEL-2 melanoma
# SK-MEL-28 melanoma = system: SK-MEL-28 melanoma
# SK-MEL-5 melanoma = system: SK-MEL-5 melanoma
# SK-OV-3 ovarian = system: SK-OV-3 ovarian
# SN12C renal = system: SN12C renal
# SNB-19 CNS = system: SNB-19 CNS
# SNB-75 CNS = system: SNB-75 CNS
# SNB-78 CNS = system: SNB-78 CNS
# SR leukemia = system: SR leukemia
# SW-620 colon = system: SW-620 colon
# TK-10 renal = system: TK-10 renal
# U251 CNS = system: U251 CNS
# UACC-257 melanoma = system: UACC-257 melanoma
# UACC-62 melanoma = system: UACC-62 melanoma
# UO-31 renal = system: UO-31 renal
# BT-549 breast = system: BT-549 breast
# CAKI-1 renal = system: CAKI-1 renal
# HCT-15 colon = system: HCT-15 colon
# HOP-62 NSCLC = system: HOP-62 NSCLC
# HS 578T breast = system: HS 578T breast
# KM20L2 colon = system: KM20L2 colon
# LOX IMVI melanoma = system: LOX IMVI melanoma
# M14 melanoma = system: M14 melanoma
# MCF7 breast = system: MCF7 breast
# MDA-MB-231 breast = system: MDA-MB-231 breast
# MDA-MB-435 = system: MDA-MB-435
# NCI-H460 lung = system: NCI-H460 lung
# NCI-H522 lung = system: NCI-H522 lung
# NCI/ADR-RES ovarian = system: NCI/ADR-RES ovarian
# OVCAR-3 ovarian = system: OVCAR-3 ovarian
# OVCAR-4 ovarian = system: OVCAR-4 ovarian
# PC-3 prostate = system: PC-3 prostate
# T-47D breast = system: T-47D breast
# XF 498 CNS = system: XF 498 CNS
smiles,measurement,setting,value
FC(F)(F)c1ccc(C2SCc3nc4ccccc4n32)cc1 (configuration not stated),TGI,786-0 renal,> 100 µM
same,TGI,A498 renal,> 100 µM
same,TGI,A549 NSCLC,> 100 µM
same,TGI,ACHN renal,> 100 µM
same,TGI,CCRF-CEM leukemia,> 100 µM
same,TGI,COLO 205 colon,> 100 µM
same,TGI,DLD-1 colon,> 100 µM
same,TGI,DMS 114 small cell lung,> 100 µM
same,TGI,DMS 273 small cell lung,> 100 µM
same,TGI,EKVX NSCLC,> 100 µM
same,TGI,HCC-2998 colon,> 100 µM
same,TGI,HCT-116 colon,> 100 µM
same,TGI,HL-60(TB) leukemia,96.2 µM
same,TGI,HOP-18 NSCLC,> 100 µM
same,TGI,HOP-92 NSCLC,48.8 µM
same,TGI,HT29 colon,> 100 µM
same,TGI,IGROV1 ovarian,> 100 µM
same,TGI,K-562 leukemia,> 100 µM
same,TGI,KM12 colon,> 100 µM
same,TGI,LXFL 529 NSCLC,> 100 µM
same,TGI,M19-MEL melanoma,> 100 µM
same,TGI,MALME-3M melanoma,> 100 µM
same,TGI,MOLT-4 leukemia,> 100 µM
same,TGI,NCI-H226 lung,> 100 µM
same,TGI,NCI-H23 lung,> 100 µM
same,TGI,OVCAR-5 ovarian,> 100 µM
same,TGI,OVCAR-8 ovarian,> 100 µM
same,TGI,RPMI-8226 leukemia,> 100 µM
same,TGI,RXF 393 renal,> 100 µM
same,TGI,RXF-631 renal,> 100 µM
same,TGI,SF-268 CNS,> 100 µM
same,TGI,SF-295 CNS,> 100 µM
same,TGI,SF-539 CNS,> 100 µM
same,TGI,SK-MEL-2 melanoma,> 100 µM
same,TGI,SK-MEL-28 melanoma,> 100 µM
same,TGI,SK-MEL-5 melanoma,> 100 µM
same,TGI,SK-OV-3 ovarian,> 100 µM
same,TGI,SN12C renal,> 100 µM
same,TGI,SNB-19 CNS,> 100 µM
same,TGI,SNB-75 CNS,> 100 µM
same,TGI,SNB-78 CNS,> 100 µM
same,TGI,SR leukemia,> 100 µM
same,TGI,SW-620 colon,> 100 µM
same,TGI,TK-10 renal,> 100 µM
same,TGI,U251 CNS,> 100 µM
same,TGI,UACC-257 melanoma,> 100 µM
same,TGI,UACC-62 melanoma,> 100 µM
same,TGI,UO-31 renal,> 100 µM
O=C1c2ccccc2C(=O)c2sc(Nc3cccc(Cl)c3)nc21,TGI,786-0 renal,3.74 µM
same,TGI,A498 renal,12.6 µM
same,TGI,A549 NSCLC,4.6 µM
same,TGI,ACHN renal,3.03 µM
same,GI50,BT-549 breast,1.67 µM
same,TGI,BT-549 breast,3.04 µM
same,TGI,CAKI-1 renal,4.97 µM
same,TGI,CCRF-CEM leukemia,3.89 µM
same,TGI,COLO 205 colon,7.68 µM
same,TGI,DLD-1 colon,3.95 µM
same,TGI,DMS 114 small cell lung,2.97 µM
same,TGI,DMS 273 small cell lung,3.59 µM
same,TGI,EKVX NSCLC,4.89 µM
same,TGI,HCC-2998 colon,5.3 µM
same,TGI,HCT-116 colon,2.54 µM
same,TGI,HCT-15 colon,3.69 µM
same,TGI,HL-60(TB) leukemia,0.444 µM
same,TGI,HOP-18 NSCLC,3.48 µM
same,TGI,HOP-62 NSCLC,3.19 µM
same,GI50,HOP-92 NSCLC,1.82 µM
same,TGI,HOP-92 NSCLC,9.1 µM
same,GI50,HS 578T breast,2.82 µM
same,TGI,HS 578T breast,9.15 µM
same,TGI,HT29 colon,8.36 µM
same,TGI,IGROV1 ovarian,5.9 µM
same,TGI,K-562 leukemia,4.36 µM
same,TGI,KM12 colon,4.1 µM
same,TGI,KM20L2 colon,20.2 µM
same,TGI,LOX IMVI melanoma,2.28 µM
same,TGI,LXFL 529 NSCLC,2.86 µM
same,TGI,M14 melanoma,3.24 µM
same,TGI,M19-MEL melanoma,0.89 µM
same,TGI,MALME-3M melanoma,2.69 µM
same,GI50,MCF7 breast,0.596 µM
same,TGI,MCF7 breast,2.46 µM
same,GI50,MDA-MB-231 breast,0.292 µM
same,TGI,MDA-MB-231 breast,3.37 µM
same,GI50,MDA-MB-435,0.258 µM
same,TGI,MDA-MB-435,0.711 µM
same,TGI,MOLT-4 leukemia,3.05 µM
same,TGI,NCI-H226 lung,6.25 µM
same,TGI,NCI-H23 lung,3.59 µM
same,TGI,NCI-H460 lung,4.25 µM
same,TGI,NCI-H522 lung,3.09 µM
same,GI50,NCI/ADR-RES ovarian,2.01 µM
same,TGI,NCI/ADR-RES ovarian,4.78 µM
same,TGI,OVCAR-3 ovarian,1.8 µM
same,TGI,OVCAR-4 ovarian,2.72 µM
same,TGI,OVCAR-5 ovarian,4.78 µM
same,TGI,OVCAR-8 ovarian,3.27 µM
same,GI50,PC-3 prostate,1.89 µM
same,TGI,PC-3 prostate,6.75 µM
same,TGI,RPMI-8226 leukemia,4.07 µM
same,TGI,RXF 393 renal,3.19 µM
same,TGI,SF-268 CNS,4.69 µM
same,TGI,SF-295 CNS,3.09 µM
same,TGI,SF-539 CNS,3.44 µM
same,TGI,SK-MEL-2 melanoma,3.79 µM
same,TGI,SK-MEL-28 melanoma,3.34 µM
same,TGI,SK-MEL-5 melanoma,2.99 µM
same,TGI,SK-OV-3 ovarian,10.9 µM
same,TGI,SN12C renal,2.84 µM
same,TGI,SNB-19 CNS,4.36 µM
same,TGI,SNB-75 CNS,3.67 µM
same,TGI,SR leukemia,5.47 µM
same,TGI,SW-620 colon,2.26 µM
same,GI50,T-47D breast,1.84 µM
same,TGI,T-47D breast,5.98 µM
same,TGI,TK-10 renal,5.39 µM
same,TGI,U251 CNS,2.97 µM
same,TGI,UACC-257 melanoma,2.99 µM
same,TGI,UACC-62 melanoma,3.25 µM
same,TGI,UO-31 renal,4 µM
same,TGI,XF 498 CNS,3.18 µM
